{"source": "patent US20210395306A1", "about": "“POLYPEPTIDES FOR THE TREATMENT OF STRESS, IMMUNOREACTION AND STROKE SYNDROMES” (Neopep Pharma GmbH & Co. KG, priority 2018, published 2021)", "tested_on": "Pancreas carcinoma cells", "assay": "Cancer cell invasion assay on humanized rats with implanted pancreas carcinoma cells", "assay_type": "in vivo", "details": "pancreas carcinoma implant", "protocol": "The cancer cell invasion assay was performed on humanized rats (Eyol, E. et al., Oncology Reports, 28: 2177-2187, 2012). Pancreas carcinoma cells were implanted. The successful implant was observed by luminescent imaging as well as by an increase in CXCR4 expression.\nAfter a successful implant of carcinoma cells, the rats were treated with a peptide according to SEQ ID No. 1. The results after 1 week of therapy (1 w of therapy), after 2 weeks of therapy (2 w of therapy) and 2 weeks after end of therapy are depicted in the below table."}
{"sequence": "LVRYTQKAPQVS (human) [SEQ ID No. 1]", "values": [{"measurement": "Tumor growth / remission", "setting": "10 mg peptide, 1 w of therapy", "value": "No tumor growth"}, {"measurement": "Tumor growth / remission", "setting": "20 mg peptide, 1 w of therapy", "value": "No tumor growth"}, {"measurement": "Tumor growth / remission", "setting": "20 mg peptide, 2 w after end of therapy", "value": "Complete"}, {"measurement": "Tumor growth / remission", "setting": "20 mg peptide, 2 w of therapy", "value": "Complete"}, {"measurement": "Tumor growth / remission", "setting": "70 mg peptide, 1 w of therapy", "value": "No tumor growth"}, {"measurement": "Tumor growth / remission", "setting": "70 mg peptide, 2 w after end of therapy", "value": "Complete"}, {"measurement": "Tumor growth / remission", "setting": "70 mg peptide, 2 w of therapy", "value": "Remission"}]}
